By Kd is commonly meant a measure of binding affinity in units of concentration.

The source of these data is PMC10533412, “Phosphoantigens glue butyrophilin 3A1 and 2A1 to activate Vγ9Vδ2 T cells” (Nature, 2023).

Read-outs that look alike come from different tables or passages of the source.

The target of test [1] is T1, BTN2A1 B30.2–BTN3A1 B30.2 (Homo sapiens, UniProt O00481+Q7KYR7).
T1 construct: The BTN3A1 B30.2 domain was expressed and purified as described previously; 6xHis; made in house; host or cells: Escherichia coli BL21 (DE3) for BTN2A1 B30.2
T1 sequence (O00481 322-513 limits assumed): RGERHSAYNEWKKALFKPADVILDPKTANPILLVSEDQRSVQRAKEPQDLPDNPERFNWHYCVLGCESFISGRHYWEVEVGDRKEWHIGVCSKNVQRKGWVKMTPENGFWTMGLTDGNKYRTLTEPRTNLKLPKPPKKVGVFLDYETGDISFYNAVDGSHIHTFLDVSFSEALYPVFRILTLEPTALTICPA
T1 sequence (Q7KYR7 316-527 limits assumed): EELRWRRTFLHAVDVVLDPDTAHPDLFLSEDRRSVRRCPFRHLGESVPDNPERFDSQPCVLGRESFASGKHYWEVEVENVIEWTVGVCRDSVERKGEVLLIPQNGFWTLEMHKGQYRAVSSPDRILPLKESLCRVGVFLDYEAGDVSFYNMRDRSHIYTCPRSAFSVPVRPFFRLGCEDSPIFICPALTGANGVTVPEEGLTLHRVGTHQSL
Description: SEC–MALS of BTN2A1 B30.2–BTN3A1 B30.2 with or without HMBPP. The conditions noted are these: listed as HMBPP.
Description: SEC–MALS experiments were performed using the Wyatt Dawn Heleos II multiangle light-scattering detector (Wyatt Technology) coupled to an AKTA Purifier UPC10 FPLC protein purification system and the Superdex 200 size-exclusion column (GE Healthcare). Protein molecular masses of the individual peaks observed in the size-exclusion chromatograms were analysed by static light scattering in conjunction with their corresponding refractive indices, using an online refractometer connected downstream of the static light scattering detector (Wyatt Optilab rEX). The proteins were prepared at 5 mg ml^−1 in a buffer (20 mM HEPES pH 7.5, 150 mM NaCl). HMBPP was prepared in 0.5 mM. The experiments were performed with a running buffer (20 mM HEPES pH 7.5, 150 mM NaCl) at a flow rate of 0.5 ml min^−1. A standard value of the refractive index, dn/dc = 0.185 ml g^−1, was used for all proteins.

The target of test [2] is T2, BTN3A3(R351H) B30.2 (Homo sapiens, UniProt O00478).
T2 construct: the B30.2 domain of this active mutant (BTN3A3(R351H))
T2 sequence (O00478 322-518 R381H): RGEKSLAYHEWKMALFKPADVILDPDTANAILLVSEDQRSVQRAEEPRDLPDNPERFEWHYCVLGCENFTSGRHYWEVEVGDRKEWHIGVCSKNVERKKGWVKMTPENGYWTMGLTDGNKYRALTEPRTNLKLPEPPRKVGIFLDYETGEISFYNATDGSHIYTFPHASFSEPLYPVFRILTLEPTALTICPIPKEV
Description: ITC: HMBPP binding to BTN3A3(R351H) B30.2. The procedure: ITC binding fits were calculated using MicroCal Analysis software.
For orientation: Isothermal titration calorimetry measures the heat released or taken up as one component is titrated into another.

For test [3], the system named is MIA PaCa-2 cells. The experiment in a line: AFM-SCFS binding force between a Vγ9Vδ2 T cell and a MIA PaCa-2 cell. It is filed as cell-based, human. The arrangement: binding force, Mean, Fig. 6b / binding force, Median, Fig. 6b: unit not given here. The procedure: The AFM-SCFS analysis procedure was performed using the JPK CellHesion unit as previously described, and closely followed our previously reported protocol for APCs[4]. […] The glass disks were quickly transferred to an AFM adapter with immediate addition of 1 ml of fresh medium (DMEM: 10% FBS and 1% penicillin–streptomycin). […] The raw data were normalized to the background readings. Blank readings for each set of affinity measurements (Vγ9Vδ2 T cells touching the glass surface) were collected immediately before each assay to perform background subtraction. All data were analysed using the JPK image processing software. […] The following steps were the same as described above.

Test [4] deals with VpBTN3 BFI (Vicugna pacos, UniProt A0A345DF50). The experiment in a line: ITC: pAg binding to VpBTN3 BFI. Conditions: ITC; read-out: KD, pAg binding to VpBTN3 intracellular domain (BFI). On the set-up: species or system alpaca (Vicugna pacos). The procedure: ITC experiments were performed using the MicroCal PEAQ-ITC instrument (GE Healthcare) at 25 °C. We used an initial injection of 0.4 μl followed by 19 injections (2 µl each) at 150 s time intervals. ITC binding fits were calculated using MicroCal Analysis software. The samples were prepared using a buffer (20 mM HEPES pH 7.5, 150 mM NaCl).
Sequence of VpBTN3 BFI (A0A345DF50 entry or part of it): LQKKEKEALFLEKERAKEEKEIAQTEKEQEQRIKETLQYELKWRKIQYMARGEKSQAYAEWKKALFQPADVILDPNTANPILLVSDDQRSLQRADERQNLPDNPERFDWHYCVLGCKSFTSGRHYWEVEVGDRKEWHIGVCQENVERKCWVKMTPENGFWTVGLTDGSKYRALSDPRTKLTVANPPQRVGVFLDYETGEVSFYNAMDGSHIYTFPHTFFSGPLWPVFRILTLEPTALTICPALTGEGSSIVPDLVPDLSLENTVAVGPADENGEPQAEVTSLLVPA
ITC experiments of HMBPP, DMAPP or IPP binding to the VpBTN3 BFI (or the preconditioned VpBTN3 BFI and VpBTN2 BFI complex) and VpBTN2 BFI (or VpBTN1 BFI) binding to VpBTN3 BFI in the presence of HMBPP, DMAPP or IPP were performed according to the same procedures as for the BTN3A1 B30.2 and BTN2A1 B30.2.

In test [5] the test system is Vγ9Vδ2 T cells. The conditions noted are these: cited from earlier work.
For test [6], the system named is MIA PaCa-2 cells. Description: Cell killing assay: cytotoxicity of Vγ9Vδ2 T cells towards pAg- or zoledronate-treated MIA PaCa-2 cells (luciferase). The class given is cell-based, human. The conditions noted are these: for Bottom (best-fit value) / Top (best-fit value) / Span (best-fit value): Fig. 1b; for Bottom (best-fit value) / Top (best-fit value): log(agonist) vs. response (three parameters); for EC50: Homo sapiens.
Description: MIA PaCa-2 cells were infected with lentivirus bearing luciferase transgene. Luciferase-positive cells were plated at 5.0 × 10^3 cells per well in 384-well plates 1 day before transfection. All plasmids were transfected into BTN2A^−/− MIA PaCa-2 (BTN2A1/BTN2A2 KO) cells using Lipofectamine 2000 reagent. […] Stable-lite luciferase (Vazyme) was added to each well and the luciferase signal was immediately measured by using the PerkinElmer EnVision microplate reader.
Percentage of lysis was calculated using the following equation: percentage of specific lysis = (maximum luciferase − experimental luciferase)/maximum luciferase × 100.

Where [7] appears, read: 2A1-KO cells + HMBPP, 31 values.
Where [8] appears, read: 2A1ΔB30.2 cells + HMBPP, 39 values.

Regarding `C/C(=C\COP(=O)(O)OP(=O)(O)O)CO` [Compound 1, (E)-4-hydroxy-3-methylbut-2-en-1-yl diphosphate], the “Molecular mass of BTN2A1 B30.2–BTN3A1 B30.2 oligomer formed on addition of HMBPP (trimer)” value in test [1] is given as 78.7 kDa. In addition, the dissociation constant (Kd) in test [2] is 10.9 µM; in test [4], 1.37 µM. The “binding force, Mean, Fig. 6b” value was 767.7 in test [3] (setting [7]); 1509 in test [3] (2A1 cells + HMBPP, 31 values); 594.3 in test [3] (setting [8]). The “binding force, Median, Fig. 6b” value in test [3] (setting [7]) is 745; in test [3] (2A1 cells + HMBPP, 31 values), 1510; in test [3] (setting [8]), 585. Also, in test [3] (after HMBPP treatment (1 µM, 4 h), untreated 558 pN), the “Binding force between a Vγ9Vδ2 T cell and a MIA PaCa-2 cell” value is reported as 1,554 pN. The “EC50 for Vγ9Vδ2 T cell activation” value in test [5] is reported as “picomolar range”. The results for the “Bottom (best-fit value)” value in test [6] (2A1 KO cells) and in test [6] (2A1 WT cells) were 2.135 and 19.47, respectively. Further, the “Top (best-fit value)” value in test [6] (2A1 KO cells) is 50.59; in test [6] (2A1 WT cells), 76.92. Also, the “Span (best-fit value)” value was found to be 48.45 in test [6] (2A1 KO cells, three-parameter fit) and 57.45 in test [6] (2A1 WT cells, three-parameter fit). The EC50 in test [6] (MIA PaCa-2, BTN2A1 WT MIA PaCa-2 cells, read-out: EC50 for HMBPP-mediated MIA PaCa-2 cell killing) is 6.5e-09 M; in test [6] (MIA PaCa-2, BTN2A1−/− (KO) MIA PaCa-2 cells, read-out: EC50 for HMBPP-mediated MIA PaCa-2 cell killing), 3.6e-05 M; in test [6] (MIA PaCa-2, Fig. 1b, 2A1 KO cells, log(Concentration)/M, three-parameter fit, read-out: LogEC50 (converted)), 3.6e-05 M; in test [6] (MIA PaCa-2, Fig. 1b, 2A1 KO cells, three-parameter fit, read-out: EC50), 3.6e-05 M; in test [6] (MIA PaCa-2, Fig. 1b, 2A1 WT cells, log(Concentration)/M, three-parameter fit, read-out: LogEC50 (converted)), 6.5e-09 M; in test [6] (MIA PaCa-2, Fig. 1b, 2A1 WT cells, three-parameter fit, read-out: EC50) it was 6.5e-09 M. In addition, the EC50 in test [6] (MIA PaCa-2, Supplementary Table 4, read-out: EC50 (M) for MIA PaCa-2 cell lysis mediated by HMBPP analogs and Vγ9Vδ2 T cells) came to 3.87e-09 M.
